Experimental findings from patent publication US9708368B2, “Linear peptide antibiotics” (priority 2012, dated 2017) are described below.

Read-outs that look alike come from different tables or passages of the source. Square brackets hold non-standard residues; d marks the D form. Peptide text beside a SMILES is read from it. * marks the point of attachment. ξ: configuration not given here. Biphenylcarbonyl(4'-Bu) = CCCCc1ccc(-c2ccc(C(=O)*)cc2)cc1; Benzoyl(4-hexyl) = CCCCCCc1ccc(C(=O)*)cc1; NMeThr(3ξ) = CN[C@H](C(=O)O)C(C)O; Thr(3ξ) = CC(O)[C@H](N)C(=O)O; Decanoyl = CCCCCCCCCC(=O)*; boroAla = C[C@H](N*)B(O)O; Dab = NCC[C@H](N)C(=O)O; boroGly = OB(O)CN* Some results are limits rather than exact numbers.

One assay concerns the target E. coli SPase (Escherichia coli, UniProt P00803). Description: Biochemical SPase activity assay (fluorogenic peptide substrate), E. coli enzyme.
In assay [1] the test system is Escherichia coli MC4100 IMP-4213 in which transcription of the SPase encoding gene is under control of a tetracycline inducible promoter. The following applies: Method A; E. coli MC4100 IMP-4213 with decreased SPase expression; 35° C., 22 hours.
Procedure: (§1) In vitro antimicrobial activity of each compound was determined by measuring minimal inhibitor concentrations (MICs) using the broth micro-dilution technique as approved by the Clinical and Laboratory Standards Institute (CLSI). […] Cells were inoculated onto Trypyticase Soy Agar or Luria Agar containing 16 ng/ml of anhydrotetracycline respectively and grown at 35° C. for 20 hours. Inocula suspensions were made by scraping cells into 1 mL of testing media (cation adjusted Mueller Hinton Broth supplemented with 0.002% v/v Tween-80) and diluting to a final OD600 nm of 0.01.
(§2) Test compounds were prepared in DMSO at a concentration of 10 mg/ml. […] Inocula suspensions were added to the two fold serial dilutions of test compounds to a final density of OD OD600 nm of 0.0005 and incubated stationary at 35° C. for 22 hours, after which the plates were examined visually.
For assay [2], the target named is T1, S. aureus SPase (Staphylococcus aureus, UniProt P0A070). As to the kind of experiment: biochemical.
Assay [3] relates to Methicillin Resistant Staphylococcus aureus strain USA 300 (NRS384). The following applies: Method A; MRSA USA 300 (NRS384); 35° C., 22 hours.
Procedure: as §1, §2
The target of assay [4] is T1, S. aureus SPase. The following applies: read-out: IC 50 (nM) S. aureus.

Sequence of E. coli SPase (P00803 whole entry): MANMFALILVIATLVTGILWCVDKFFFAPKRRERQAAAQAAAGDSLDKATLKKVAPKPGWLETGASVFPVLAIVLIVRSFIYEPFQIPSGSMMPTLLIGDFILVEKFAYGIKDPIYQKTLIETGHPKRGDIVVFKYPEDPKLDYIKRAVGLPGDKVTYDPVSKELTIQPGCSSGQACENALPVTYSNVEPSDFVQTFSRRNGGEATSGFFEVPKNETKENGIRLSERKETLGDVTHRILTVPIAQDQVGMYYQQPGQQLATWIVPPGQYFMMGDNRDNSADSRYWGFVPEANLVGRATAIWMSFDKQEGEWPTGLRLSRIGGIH
T1 sequence (P0A070 whole entry): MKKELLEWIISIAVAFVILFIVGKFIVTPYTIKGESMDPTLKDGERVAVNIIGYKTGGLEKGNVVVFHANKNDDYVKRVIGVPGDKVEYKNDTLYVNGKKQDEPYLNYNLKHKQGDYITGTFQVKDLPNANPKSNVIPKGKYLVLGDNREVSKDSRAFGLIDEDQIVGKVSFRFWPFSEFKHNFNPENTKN
Procedure for E. coli SPase: Reactions were initiated by the addition of substrate to a final concentration of 20 μM. Reaction progress was monitored by measuring the increase in fluorescence signal (excitation at 314 nm, emission at 416 nm) using a SpectraMax M2 fluorescence microplate reader. […] Three-folder serial dilutions of test compounds, starting at 10 μM, were prepared in enzyme mix solution and incubated at room temperature for 10 minutes. Following this incubation, fluorogenic substrate was added to a final concentration of 20 μM and the increase in fluorescence, corresponding to substrate cleavage, was monitored continuously at room temperature for 1 hour. Initial reaction rates were calculated based on the rate of increase in fluorescence during the reaction. Reaction rates were plotted as a function of compound concentration, and IC50 values are determined nonlinear regression analysis (SoftMaxPro 5.4, Molecular Devices™) of the sigmoidal dose-response curve.

With `CCCCCCc1ccc(C(=O)N[C@H](CO)C(=O)N[C@H](C)C(=O)NCC(=O)N(C)[C@H](C(=O)N[C@@H](C)C(=O)N[C@@H](CC(N)=O)C(=O)NCB(O)O)C(C)O)cc1` (stereo partly shown) [Compound 124] ({Benzoyl(4-hexyl)}-[dS][dA]G[NMeThr(3ξ)]AN-boroGly), the values for the IC50 against E. coli SPase and at S. aureus SPase [2] were 810 nM and 83 nM, respectively. The “MIC (μg/mL) E. coli” value in assay [1] was above 64 µg/mL. In addition, the “MIC (μg/mL) S. aureus” value in assay [3] is above 64 µg/mL.
For the compound `CCCCCCCCCC(=O)N[C@@H](CC(C)C)C(=O)N[C@H](C(=O)N1CCC[C@@H]1C(=O)N[C@H](C(=O)N[C@@H](C)C(=O)N[C@@H](Cc1ccc(O)cc1)C(=O)NCB(O)O)C(C)O)C(C)O` (stereo partly shown) [Compound 128] (Decanoyl-L[Thr(3ξ)][dP][Thr(3ξ)]AY-boroGly), the IC50 was found to be 3000 nM at E. coli SPase and 670 nM at S. aureus SPase [2]. In addition, the “MIC (μg/mL) E. coli” value in assay [1] is above 64 µg/mL. For the same compound, the “MIC (μg/mL) S. aureus” value in assay [3] was above 64 µg/mL.
Regarding `CCCCc1ccc(-c2ccc(C(=O)N[C@@H](CCN)C(=O)N[C@H](C(=O)N[C@@H](C)C(=O)N[C@@H](CCCCN)C(=O)N[C@@H](C)B(O)O)[C@@H](C)O)cc2)cc1` [Compound 238] ({Biphenylcarbonyl(4'-Bu)}-[Dab]TAK-boroAla), the IC50 at S. aureus SPase [4] worked out at 33 nM; on E. coli SPase (read-out: IC 50 (nM) E. coli, E. coli SPase 2.5 nM, substrate 20 μM, 10 minutes pre-incubation), 4.6 nM.
